# From patent US20160193165A1, “NOVEL POLYMORPHS AND SALTS” (CHIESI FARMACEUTICI S.p.A., priority 2010, published 2016)
# Experiments:
# [1] = Stability of salts on storage at room temperature and 80% relative humidity (XRPD); format: physicochemical; settings: for changes in the XRPD pattern after storage: 7 days at room temperature and 80% relative humidity
# Experimental: Each of the salts obtained was characterized by X-ray powder diffraction (XRPD), Thermogravimetric analysis (TGA), and Differential Scanning calorimetry (DSC). Furthermore, the stabilities of the sodium, potassium, L-Arginine and L-Lysine salts were tested by storage for 7 days at room temperature and 80% relative humidity.
# [2] = Thermodynamic solubility of salts in water; format: physicochemical; settings: for Solubility: 37° C., pH 6.8-7.4, stirring 500 rpm, 24 hours
# Experimental: Each of the sodium, potassium, L-Arg and L-Lys salts prepared as described above was dissolved in water at a temperature of 37° C., pH 6.8-7.4 at a stirring rate of 500 rpm for 24 hours.
changes in the XRPD pattern after storage [1],stability when stored under conditions of high humidity (in words) [1],solubility in water (in words) [2],Solubility [2],Structure (SMILES)
No changes,good stability,excellent solubility,15.2 g/L,"O=C(O)C1(c2ccc(-c3ccc(Cl)c(Cl)c3)c(F)c2)CC1 [L-Arginine, 1-(3′,4′-dichloro-2-fluorobiphenyl-4-yl)cyclopropanecarboxylic acid]"
No changes,good stability,excellent solubility,36.6 g/L,"O=C(O)C1(c2ccc(-c3ccc(Cl)c(Cl)c3)c(F)c2)CC1 [L-Lysine, 1-(3′,4′-dichloro-2-fluorobiphenyl-4-yl)cyclopropanecarboxylic acid]"
No changes,good stability,excellent solubility,6.3 g/L,"O=C(O)C1(c2ccc(-c3ccc(Cl)c(Cl)c3)c(F)c2)CC1 [Potassium, 1-(3′,4′-dichloro-2-fluorobiphenyl-4-yl)cyclopropanecarboxylic acid]"
No changes,good stability,excellent solubility,20.4 g/L,"O=C(O)C1(c2ccc(-c3ccc(Cl)c(Cl)c3)c(F)c2)CC1 [Sodium, 1-(3′,4′-dichloro-2-fluorobiphenyl-4-yl)cyclopropanecarboxylic acid]"
